In PubChem BioAssay AID1919007 (Molecular Pharmacology Branch, DTP, NCI, 2023):

Tested on: A498 complex spheroids with HUVEC/MSC, growth
Test: Anticancer human tumor A498 cell line growth inhibition [AhR];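 further: seven day exposure starting three days after spheroid seeding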;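 on viability, T/C: luminescence signal used as a surrogate for viable cells; luminescence viability scaled so 100% equals DMSO vehicle wells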
Settings: for IC50: curve of first compound; for viability, T/C: stronger effect = lower value
Summary of the method: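 Complex tumor spheroids co-cultured with HUVEC and human MSC stroma; AhR antagonists tested in combination with standard-of-care and investigational agents. Top concentration at or near clinical Cmax (else 10 microM), half-log dilutions; growth expressed as percent test/control.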

[1] = second compound 0.1 µM, first compound 0.00316 µM
[2] = second compound 0.1 µM, first compound 0.01 µM
[3] = second compound 0.1 µM, first compound 0.0316 µM
[4] = second compound 0.1 µM, first compound 0.1 µM
[5] = second compound 0.316 µM, first compound 0.00316 µM
[6] = second compound 0.316 µM, first compound 0.01 µM
[7] = second compound 0.316 µM, first compound 0.0316 µM
[8] = second compound 0.316 µM, first compound 0.1 µM
[9] = second compound 1 µM, first compound 0.00316 µM
[10] = second compound 1 µM, first compound 0.01 µM
[11] = second compound 1 µM, first compound 0.0316 µM
[12] = second compound 1 µM, first compound 0.1 µM
[13] = second compound 3.16 µM, first compound 0.00316 µM
[14] = second compound 3.16 µM, first compound 0.01 µM
[15] = second compound 3.16 µM, first compound 0.0316 µM
[16] = second compound 3.16 µM, first compound 0.1 µM
[17] = second compound 10 µM, first compound 0.00316 µM
[18] = second compound 10 µM, first compound 0.01 µM
[19] = second compound 10 µM, first compound 0.0316 µM
[20] = second compound 10 µM, first compound 0.1 µM
[21] = second compound 0.1 µM, first compound 0.316 µM
[22] = second compound 0.1 µM, first compound 1 µM
[23] = second compound 0.1 µM, first compound 3.16 µM
[24] = second compound 0.1 µM, first compound 10 µM
[25] = second compound 0.316 µM, first compound 0.316 µM
[26] = second compound 0.316 µM, first compound 1 µM
[27] = second compound 0.316 µM, first compound 3.16 µM
[28] = second compound 0.316 µM, first compound 10 µM
[29] = second compound 1 µM, first compound 0.316 µM
[30] = second compound 1 µM, first compound 1 µM
[31] = second compound 1 µM, first compound 3.16 µM
[32] = second compound 1 µM, first compound 10 µM
[33] = second compound 3.16 µM, first compound 0.316 µM
[34] = second compound 3.16 µM, first compound 1 µM
[35] = second compound 3.16 µM, first compound 3.16 µM
[36] = second compound 3.16 µM, first compound 10 µM
[37] = second compound 10 µM, first compound 0.316 µM
[38] = second compound 10 µM, first compound 1 µM
[39] = second compound 10 µM, first compound 3.16 µM
[40] = second compound 10 µM, first compound 10 µM

Structure (SMILES)	IC50 (second compound 0.1 µM) [nM]	IC50 (second compound 0.316 µM) [nM]	IC50 (second compound 1 µM) [nM]	IC50 (second compound 3.16 µM) [nM]	IC50 (second compound 10 µM) [nM]	viability, T/C [3] [%]	viability, T/C [4] [%]	viability, T/C [7] [%]	viability, T/C [8] [%]	viability, T/C [11] [%]	viability, T/C [12] [%]	viability, T/C [15] [%]	viability, T/C [16] [%]	viability, T/C [19] [%]	viability, T/C [20] [%]	viability, T/C [21] [%]	viability, T/C [22] [%]	viability, T/C [25] [%]	viability, T/C [26] [%]	viability, T/C [29] [%]	also measured
CC[C@@]1(O)C(=O)OCc2c1cc1n(c2=O)Cc2cc3c(CN(C)C)c(O)ccc3nc2-1 + Cc1cncc(-c2nc(NCCc3c[nH]c4ccccc34)c3ncn(C(C)C)c3n2)c1	> 100	> 100	> 100	> 100	< 0.316	72.9	69.8	83.3	72.9	77	66.6	56.5	53.1	6.79	8.73	–	–	–	–	–	viability, T/C (second compound 0.1 µM, first compound 0.000316 µM): 87.4%; viability, T/C (second compound 0.1 µM, first compound 0.001 µM): 92.5%; viability, T/C [1]: 90.1%; viability, T/C [2]: 84.7%; viability, T/C (second compound 0.316 µM, first compound 0.000316 µM): 88.7%; viability, T/C (second compound 0.316 µM, first compound 0.001 µM): 92.2%; viability, T/C [5]: 91.1%; viability, T/C [6]: 83.1%; viability, T/C (second compound 1 µM, first compound 0.000316 µM): 89.2%; viability, T/C (second compound 1 µM, first compound 0.001 µM): 92.5%; viability, T/C [9]: 98.3%; viability, T/C [10]: 76.5%; viability, T/C (second compound 3.16 µM, first compound 0.000316 µM): 61.4%; viability, T/C (second compound 3.16 µM, first compound 0.001 µM): 72.9%; viability, T/C [13]: 65.8%; viability, T/C [14]: 60.5%; viability, T/C (second compound 10 µM, first compound 0.000316 µM): 4.54%; viability, T/C (second compound 10 µM, first compound 0.001 µM): 6%; viability, T/C [17]: 7.18%; viability, T/C [18]: 5.32%
COc1cc(C2c3cc4c(cc3C(OC3OC5COC(C)OC5C(O)C3O)C3COC(=O)C23)OCO4)cc(OC)c1O (stereo not given) + Cc1cncc(-c2nc(NCCc3c[nH]c4ccccc34)c3ncn(C(C)C)c3n2)c1	> 10000	> 10000	> 10000	3640	< 31.6	79.4	73	83.7	76.6	79.8	74	61.4	63.6	3.97	4.03	73.3	68.1	79.9	69	74.4	viability, T/C [23]: 62.4%; viability, T/C [24]: 52.2%; viability, T/C [27]: 59.9%; viability, T/C [28]: 59%; viability, T/C [30]: 60.5%; viability, T/C [31]: 56.3%; viability, T/C [32]: 50.1%; viability, T/C [33]: 66.9%; viability, T/C [34]: 56.8%; viability, T/C [35]: 47.1%; viability, T/C [36]: 43.2%; viability, T/C [37]: 4.95%; viability, T/C [38]: 4.99%; viability, T/C [39]: 5.98%; viability, T/C [40]: 6.6%
COc1cccc2c1C(=O)c1c(O)c3c(c(O)c1C2=O)CC(O)(C(=O)CO)CC3OC1CC(N)C(O)C(C)O1 (stereo not given) + Cc1cncc(-c2nc(NCCc3c[nH]c4ccccc34)c3ncn(C(C)C)c3n2)c1	266	380	175	< 31.6	< 31.6	64.7	57.1	61.1	65.6	58.6	55.9	48.8	50.7	5.86	6.1	48.8	20.3	56.3	15.4	43.1	viability, T/C [23]: 1.26%; viability, T/C [24]: 0.76%; viability, T/C [27]: 1.1%; viability, T/C [28]: 0.72%; viability, T/C [30]: 10.3%; viability, T/C [31]: 1.14%; viability, T/C [32]: 0.7%; viability, T/C [33]: 37.7%; viability, T/C [34]: 2.21%; viability, T/C [35]: 1.26%; viability, T/C [36]: 0.84%; viability, T/C [37]: 9.17%; viability, T/C [38]: 0.29%; viability, T/C [39]: 0.94%; viability, T/C [40]: 0.55%
Nc1ccn(C2OC(CO)C(O)C2(F)F)c(=O)n1 (stereo not given) + Cc1cncc(-c2nc(NCCc3c[nH]c4ccccc34)c3ncn(C(C)C)c3n2)c1	< 31.6	< 31.6	< 31.6	< 31.6	< 31.6	26.9	33.5	29	32	32.7	26.5	45.1	27.8	4.54	4.79	41.7	41.2	42.7	43.7	39.7	viability, T/C [23]: 36.5%; viability, T/C [24]: 39.1%; viability, T/C [27]: 41.9%; viability, T/C [28]: 39.9%; viability, T/C [30]: 42.2%; viability, T/C [31]: 39.5%; viability, T/C [32]: 34%; viability, T/C [33]: 28.7%; viability, T/C [34]: 30.5%; viability, T/C [35]: 28.8%; viability, T/C [36]: 33%; viability, T/C [37]: 5.17%; viability, T/C [38]: 3.59%; viability, T/C [39]: 3.85%; viability, T/C [40]: 5.49%
Nc1ncn(C2CC(O)C(CO)O2)c(=O)n1 (stereo not given) + Cc1cncc(-c2nc(NCCc3c[nH]c4ccccc34)c3ncn(C(C)C)c3n2)c1	> 1000	> 1000	> 1000	> 1000	< 3.16	88.5	85.4	92.5	88.5	85	79.8	71.1	60.6	6.07	3.94	75	70.1	83.2	81.9	81	viability, T/C [1]: 83.2%; viability, T/C [2]: 93.2%; viability, T/C [5]: 90.3%; viability, T/C [6]: 94.5%; viability, T/C [9]: 85.4%; viability, T/C [10]: 86.4%; viability, T/C [30]: 76%; viability, T/C [13]: 61.5%; viability, T/C [14]: 65.8%; viability, T/C [33]: 62.8%; viability, T/C [34]: 63.4%; viability, T/C [17]: 4.02%; viability, T/C [18]: 3.97%; viability, T/C [37]: 4.34%; viability, T/C [38]: 4.63%
